Measured values from ChEMBL document CHEMBL2434896, “Carbonic anhydrase inhibitors. Synthesis of heterocyclic 4-substituted pyridine-3-sulfonamide derivatives and their inhibition of the human cytosolic isozymes I and II and transmembrane tumor-associated isozymes IX and XII” (Eur J Med Chem, 2013).
pKi: −log10 of the molar value. Activity calls are given as the source filed them. The rule behind the calls is not given here.

Assays:
[1] = system: LOX IMVI; assay: Growth inhibition of human LOXIMVI cells at 10 uM after 48 hrs by sulforhodamine B assay; format: functional
[2] = system: SNB-75; assay: Growth inhibition of human SNB75 cells at 10 uM after 48 hrs by sulforhodamine B assay; format: functional; details: SNB-75, 48 h, read-out: GI
[3] = system: SNB-19; assay: Growth inhibition of human SNB19 cells at 10 uM after 48 hrs by sulforhodamine B assay; format: functional
[4] = system: SF-539; assay: Growth inhibition of human SF539 cells at 10 uM after 48 hrs by sulforhodamine B assay; format: functional
[5] = system: SF-295; assay: Growth inhibition of human SF295 cells at 10 uM after 48 hrs by sulforhodamine B assay; format: functional
[6] = system: SF-268; assay: Growth inhibition of human SF268 cells at 10 uM after 48 hrs by sulforhodamine B assay; format: functional
[7] = system: KM12; assay: Growth inhibition of human KM12 cells at 10 uM after 48 hrs by sulforhodamine B assay; format: functional
[8] = system: HT-29; assay: Growth inhibition of human HT-29 cells at 10 uM after 48 hrs by sulforhodamine B assay; format: functional
[9] = system: COLO 205; assay: Growth inhibition of human COLO205 cells at 10 uM after 48 hrs by sulforhodamine B assay; format: functional
[10] = system: NCI-H460; assay: Growth inhibition of human NCI-H460 cells at 10 uM after 48 hrs by sulforhodamine B assay; format: functional
[11] = system: NCI-H322M; assay: Growth inhibition of human NCI-H322M cells at 10 uM after 48 hrs by sulforhodamine B assay; format: functional
[12] = system: NCI-H226; assay: Growth inhibition of human NCI-H226 cells at 10 uM after 48 hrs by sulforhodamine B assay; format: functional
[13] = system: HOP-92; assay: Growth inhibition of human HOP92 cells at 10 uM after 48 hrs by sulforhodamine B assay; format: functional; details: HOP-92, 48 h, read-out: GI
[14] = system: HOP-62; assay: Growth inhibition of human HOP62 cells at 10 uM after 48 hrs by sulforhodamine B assay; format: functional
[15] = system: SR; assay: Growth inhibition of human SR cells at 10 uM after 48 hrs by sulforhodamine B assay; format: functional; details: read-out: GI
[16] = system: RPMI-8226; assay: Growth inhibition of human RPMI8226 cells at 10 uM after 48 hrs by sulforhodamine B assay; format: functional; details: RPMI-8226, 48 h, read-out: GI
[17] = system: MOLT-4; assay: Growth inhibition of human MOLT4 cells at 10 uM after 48 hrs by sulforhodamine B assay; format: functional
[18] = system: K562; assay: Growth inhibition of human K562 cells at 10 uM after 48 hrs by sulforhodamine B assay; format: functional
[19] = system: HL-60(TB); assay: Growth inhibition of human HL-60(TB) cells at 10 uM after 48 hrs by sulforhodamine B assay; format: functional
[20] = system: CCRF-CEM; assay: Growth inhibition of human CCRF-CEM cells at 10 uM after 48 hrs by sulforhodamine B assay; format: functional; details: read-out: GI
[21] = target: Carbonic anhydrase 9 (Homo sapiens, UniProt Q16790); assay: Inhibition of human carbonic anhydrase 9 after 15 mins by stopped flow CO2 hydration assay
[22] = system: MDA-MB-468; assay: Growth inhibition of human MDA-MB-468 cells at 10 uM after 48 hrs by sulforhodamine B assay; format: functional
[23] = system: T47D; assay: Growth inhibition of human T47D cells at 10 uM after 48 hrs by sulforhodamine B assay; format: functional
[24] = system: BT-549; assay: Growth inhibition of human BT549 cells at 10 uM after 48 hrs by sulforhodamine B assay; format: functional; details: BT-549, 48 h, read-out: GI
[25] = system: Hs-578T; assay: Growth inhibition of human Hs 578T cells at 10 uM after 48 hrs by sulforhodamine B assay; format: functional
[26] = system: MCF7; assay: Growth inhibition of human MCF7 cells at 10 uM after 48 hrs by sulforhodamine B assay; format: functional; details: MCF7, 48 h, read-out: GI
[27] = system: DU-145; assay: Growth inhibition of human DU145 cells at 10 uM after 48 hrs by sulforhodamine B assay; format: functional
[28] = system: UO-31; assay: Growth inhibition of human UO31 cells at 10 uM after 48 hrs by sulforhodamine B assay; format: functional; details: UO-31, 48 h, read-out: GI
[29] = system: TK-10; assay: Growth inhibition of human TK10 cells at 10 uM after 48 hrs by sulforhodamine B assay; format: functional
[30] = system: RXF 393; assay: Growth inhibition of human RXF393 cells at 10 uM after 48 hrs by sulforhodamine B assay; format: functional
[31] = system: CAKI-1; assay: Growth inhibition of human CAKI-1 cells at 10 uM after 48 hrs by sulforhodamine B assay; format: functional; details: CAKI-1, 48 h, read-out: GI
[32] = system: A498; assay: Growth inhibition of human A498 cells at 10 uM after 48 hrs by sulforhodamine B assay; format: functional
[33] = system: 786-0; assay: Growth inhibition of human 786-0 cells at 10 uM after 48 hrs by sulforhodamine B assay; format: functional; details: 786-0, 48 h, read-out: GI
[34] = system: SK-OV-3; assay: Growth inhibition of human SKOV3 cells at 10 uM after 48 hrs by sulforhodamine B assay; format: functional
[35] = system: NCI/ADR-RES; assay: Growth inhibition of human NCI-ADR-RES cells at 10 uM after 48 hrs by sulforhodamine B assay; format: functional
[36] = system: OVCAR-8; assay: Growth inhibition of human OVCAR8 cells at 10 uM after 48 hrs by sulforhodamine B assay; format: functional; details: OVCAR-8, 48 h, read-out: GI
[37] = system: OVCAR-5; assay: Growth inhibition of human OVCAR5 cells at 10 uM after 48 hrs by sulforhodamine B assay; format: functional
[38] = system: OVCAR-4; assay: Growth inhibition of human OVCAR4 cells at 10 uM after 48 hrs by sulforhodamine B assay; format: functional
[39] = system: OVCAR-3; assay: Growth inhibition of human OVCAR3 cells at 10 uM after 48 hrs by sulforhodamine B assay; format: functional
[40] = system: IGROV-1; assay: Growth inhibition of human IGROV1 cells at 10 uM after 48 hrs by sulforhodamine B assay; format: functional
[41] = system: UACC-62; assay: Growth inhibition of human UACC62 cells at 10 uM after 48 hrs by sulforhodamine B assay; format: functional
[42] = system: UACC-257; assay: Growth inhibition of human UACC257 cells at 10 uM after 48 hrs by sulforhodamine B assay; format: functional
[43] = system: SK-MEL-5; assay: Growth inhibition of human SK-MEL-5 cells at 10 uM after 48 hrs by sulforhodamine B assay; format: functional
[44] = system: SK-MEL-28; assay: Growth inhibition of human SK-MEL-28 cells at 10 uM after 48 hrs by sulforhodamine B assay; format: functional, cell-based
[45] = system: SK-MEL-2; assay: Growth inhibition of human SK-MEL-2 cells at 10 uM after 48 hrs by sulforhodamine B assay; format: functional
[46] = system: MDA-MB-435; assay: Growth inhibition of human MDA-MB-435 cells at 10 uM after 48 hrs by sulforhodamine B assay; format: functional
[47] = system: HCC 2998; assay: Growth inhibition of human HCC2998 cells at 10 uM after 48 hrs by sulforhodamine B assay; format: functional

Q: How did the “growth inhibition (GI)” value [1] turn out when CCc1cc(CC)n(-c2ccncc2S(N)(=O)=O)n1 was run?
A: inactive

Q: What about the inhibition of growth at 10 µM [2] of the same compound?
A: 3%

Q: What about the “growth inhibition (GI)” value [3] of the same compound?
A: inactive

Q: What about the inhibition of growth at 10 µM ([4]; SF-539, 48 h, read-out: GI) of the same compound?
A: 4%

Q: What about the “growth inhibition (GI)” value [5] of the same compound?
A: inactive

Q: What about the “growth inhibition (GI)” value [6] of the same compound?
A: inactive

Q: And the “growth inhibition (GI)” value [7]?
A: inactive

Q: And the inhibition of growth at 10 µM ([8]; HT-29, 48 h, read-out: GI)?
A: 1%

Q: And the inhibition of growth at 10 µM ([9]; COLO 205, 48 h, read-out: GI)?
A: 13%

Q: What about the “growth inhibition (GI)” value [10] of the same compound?
A: inactive

Q: What about the “growth inhibition (GI)” value [11] of the same compound?
A: inactive

Q: What about the “growth inhibition (GI)” value [12] of the same compound?
A: inactive

Q: And the inhibition of growth at 10 µM [13]?
A: 1%

Q: What about the “growth inhibition (GI)” value [14] of the same compound?
A: inactive

Q: And the inhibition of growth at 10 µM [15]?
A: 5%

Q: What about the inhibition of growth at 10 µM [16] of the same compound?
A: 9%

Q: And the inhibition of growth at 10 µM ([17]; MOLT-4, 48 h, read-out: GI)?
A: 2%

Q: And the “growth inhibition (GI)” value [18]?
A: inactive

Q: What about the “growth inhibition (GI)” value [19] of the same compound?
A: inactive

Q: What about the inhibition of growth at 10 µM [20] of the same compound?
A: 4%

Q: And the pKi [21]?
A: 7.50

Q: What about the “growth inhibition (GI)” value [22] of the same compound?
A: inactive

Q: What about the “growth inhibition (GI)” value [23] of the same compound?
A: inactive

Q: What about the inhibition of growth at 10 µM [24] of the same compound?
A: 2%

Q: And the “growth inhibition (GI)” value [25]?
A: inactive

Q: What about the inhibition of growth at 10 µM [26] of the same compound?
A: 10%

Q: And the “growth inhibition (GI)” value [27]?
A: inactive

Q: And the inhibition of growth at 10 µM [28]?
A: 8%

Q: What about the “growth inhibition (GI)” value [29] of the same compound?
A: inactive

Q: What about the “growth inhibition (GI)” value [30] of the same compound?
A: inactive

Q: What about the inhibition of growth at 10 µM [31] of the same compound?
A: 1%

Q: What about the “growth inhibition (GI)” value [32] of the same compound?
A: inactive

Q: What about the inhibition of growth at 10 µM [33] of the same compound?
A: 2%

Q: What about the inhibition of growth at 10 µM ([34]; SK-OV-3, 48 h, read-out: GI) of the same compound?
A: 6%

Q: What about the “growth inhibition (GI)” value [35] of the same compound?
A: inactive

Q: What about the inhibition of growth at 10 µM [36] of the same compound?
A: 9%

Q: What about the “growth inhibition (GI)” value [37] of the same compound?
A: inactive

Q: What about the inhibition of growth at 10 µM ([38]; OVCAR-4, 48 h, read-out: GI) of the same compound?
A: 4%

Q: What about the inhibition of growth at 10 µM ([39]; OVCAR-3, 48 h, read-out: GI) of the same compound?
A: 1%

Q: What about the “growth inhibition (GI)” value [40] of the same compound?
A: inactive

Q: And the “growth inhibition (GI)” value [41]?
A: inactive

Q: What about the “growth inhibition (GI)” value [42] of the same compound?
A: inactive

Q: What about the “growth inhibition (GI)” value [43] of the same compound?
A: inactive

Q: And the “growth inhibition (GI)” value [44]?
A: inactive

Q: And the “growth inhibition (GI)” value [45]?
A: inactive

Q: What about the “growth inhibition (GI)” value [46] of the same compound?
A: inactive

Q: What does the source list for NS(=O)(=O)c1cnccc1N1CCN(c2ccccn2)CC1?
A: inhibition of growth at 10 µM ([1]; read-out: GI): 9%; inhibition of growth at 10 µM [2]: 12%; growth inhibition (GI) [3]: inactive; growth inhibition (GI) [4]: inactive; growth inhibition (GI) [5]: inactive; growth inhibition (GI) [6]: inactive; growth inhibition (GI) [7]: inactive; growth inhibition (GI) [8]: inactive; growth inhibition (GI) [47]: inactive; growth inhibition (GI) [9]: inactive; growth inhibition (GI) [10]: inactive; growth inhibition (GI) [11]: inactive; inhibition of growth at 10 µM ([12]; NCI-H226, 48 h, read-out: GI): 5%; inhibition of growth at 10 µM [13]: 11%; growth inhibition (GI) [14]: inactive; inhibition of growth at 10 µM [15]: 12%; inhibition of growth at 10 µM [16]: 5%; growth inhibition (GI) [17]: inactive; inhibition of growth at 10 µM ([18]; K562, 48 h, read-out: GI): 4%; growth inhibition (GI) [19]: inactive; inhibition of growth at 10 µM [20]: 5%; pKi [21]: 6.95; inhibition of growth at 10 µM ([22]; MDA-MB-468, 48 h, read-out: GI): 1%; inhibition of growth at 10 µM ([23]; read-out: GI): 8%; inhibition of growth at 10 µM [24]: 6%; inhibition of growth at 10 µM [26]: 3%; inhibition of growth at 10 µM ([27]; DU-145, 48 h, read-out: GI): 8%; inhibition of growth at 10 µM [28]: 11%; growth inhibition (GI) [29]: inactive; growth inhibition (GI) [30]: inactive; inhibition of growth at 10 µM [31]: 10%; inhibition of growth at 10 µM ([32]; A498, 48 h, read-out: GI): 24%; inhibition of growth at 10 µM [33]: 2%; growth inhibition (GI) [34]: inactive; inhibition of growth at 10 µM [36]: 12%; growth inhibition (GI) [37]: inactive; growth inhibition (GI) [38]: inactive; growth inhibition (GI) [39]: inactive; growth inhibition (GI) [40]: inactive; growth inhibition (GI) [41]: inactive; inhibition of growth at 10 µM ([42]; UACC-257, 48 h, read-out: GI): 2%; growth inhibition (GI) [43]: inactive; growth inhibition (GI) [44]: inactive; inhibition of growth at 10 µM ([45]; SK-MEL-2, 48 h, read-out: GI): 1%; inhibition of growth at 10 µM ([46]; MDA-MB-435, 48 h, read-out: GI): 2%
